US20240174690A1, “ANNULATED 2-AMINO-3-CYANO THIOPHENES AND DERIVATIVES FOR THE TREATMENT OF CANCER” (BOEHRINGER INGELHEIM INTERNATIONAL GMBH, priority 2021, published 2024)

Test system: Caco-2 cell monolayers
Assay: Caco-2 assay (permeability PappAB, PappBA, efflux ratio)
Type: in vitro ADME
Settings: 10 μM test compound, pH 7.4
In short: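 Bidirectional permeability (apical-to-basolateral and reverse) through polarized Caco-2 monolayers, BSA 0.25% on each side, 37 °C. Donor and receiver sampled at 0-90 min after 25-30 min preincubation, analysed by HPLC/MS/MS. Apparent permeabilities derived from transfer rate normalised to area and t=0 donor concentration; ER taken as PappBA over PappAB.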

Structure (SMILES): C[C@H](Oc1cc(-n2ccc(C(=O)N[C@H]3CCOC3)n2)nc(-c2noc3c2CCC[C@@]32CCCc3sc(N)c(C#N)c32)n1)[C@@H]1CCCN1C [II-193]
- Caco PappAB (apical to basolateral): 3.7 ×10⁻⁶ cm/s
- Caco ER (efflux ratio PappBA/PappAB): 8.1
